US20180017584A1, “ADDITIVE CHANNELS” (Emulate Inc., priority 2016, published 2018)
Positions of bridges follow the written chain, without caps; N, C: chain ends. Non-standard residues stand in square brackets, D forms with d. Residues, ends and D or L forms follow the SMILES beside them. hArg = N=C(N)NCCCC[C@H](N)C(=O)O; Mpa = O=C(O)CCS

Columns and labels:
p-selectin on platelets = experiment: Quality control of platelet activation by p-selectin expression; type: cell-based, human; details: control blood upon activation by ADP
Procedure: (§1) To test for a thrombic event, blood was collected from 4 donors, the as blood alone or blood treated with hu5C8 alone (240 μg/mL), sCD40L (10 ng/ml) alone or with combined hu5C8/sCD40L was incubated for 20 minutes at room temperature. Each sample was further incubated for 5 minutes with fluorescent labels for platelets and fibrinogen. As a standard quality control, the control blood was tested for platelet activation using p-selection expression. We confirmed that platelets in control blood were not activated but upon activation by ADP, over 90% of platelet was positive for p-selectin.

[1] = system: platelets in human whole blood perfused over HUVEC endothelium; experiment: Vessel-On-Chip blood perfusion, platelet coverage / aggregation by fluorescence imaging (CD41 label); type: cell-based; details: for platelet coverage / platelet aggregate formation on the endothelium: vs blood alone, TNF-α 50 ng/ml 6 h, sCollagen 10 μg/ml, hu5C8 240 μg/ml + sCD40L 10 ng/ml
Procedure: (§2) Experiments with Blood: Blood Samples And Endothelium: Citrated human blood (Research Blood Components, Cambridge, Mass.) was used within 4 hours of a blood draw in order to minimize pre-analytical effects on platelet function. Before every experiment, each one of the endothelialized channels (i.e. microchannels having an endothelial cell layer) was inspected via light microscopy, Samples showing any sign of discontinuity in the endothelium were discarded.
(§3) Blood Pre-treatment and Perfusion: Formation of IC (preformed IC): Hu5C8, IgG2σ (control) (both provided by Janssen or provided as described herein) For studies with preformed IC, Hu5C8 or IgG2σ as an isotype control were combined with sCD40L (Tonbo Biosciences, San Diego, Calif.) in PBS, in a ratio of I molecule of sCD40L to 3000 molecules of antibody. After 20 minutes incubation at room temperature, the solution was diluted in a blood sample to reach the final concentration of 240 μg/ml (Hu5C8) and 10 ng/ml (sCD40L).
Platelets: Platelets were labeled with human CD41-PE antibody (10 μL/ml. Invitrogen) directly added to the blood and incubated at room temperature for 5 minutes.
Anticoagulant Drug: As an exemplary standard antiplatelet (anticoagulant) drug, Eptifibatide was used as described herein. Eptifibatide has a well-known mechanism of action, such that a bolus of 180 mcg/Kg is frequently used to treat human patients.^54 We estimated that a concentration of 2.4 μM (about 2 μg/ml) is a clinical relevant concentration. As described herein for experiments including Eptifibatide, 2 μg/ml of Eptifibatide were incubated with blood samples for 15 minutes at room temperature before adding sCollagen or before flowing through TNF-inflamed biomimetic vessel.
(§4) Adding Blood to a Vessel-On-Chip And Flow Conditions: A medical grade plastic reservoir was mounted on the chip, then 800 μl of the blood sample was pipetted into the reservoir. The chip was perfused with the blood by withdrawing it at a rate of 60 μl/minute using a syringe pump. The citrated blood was re-calcified 2 minutes after the beginning of each experiment by adding 100 μl/ml of a solution containing 100 mM calcium chloride and 75 mM magnesium chloride to the blood to permit calcium- and magnesium-dependent platelet function and coagulation.
(§5) Staining of Endothelial Cells: Samples were washed twice in cell culture medium and then fixed in acetone/methanol 1:1 at −20° C., for 10 minutes. Each sample was then washed three times in PBS and incubated in blocking solution consisting of PBS and 10% normal donkey serum (Abcam) for one hour. After blocking, samples were washed in PBS twice and then incubated with anti VE-Cadherin monoclonal antibody (Abeam) diluted 1:100 in blocking solution at 4° C. overnight. […] Fluorescence Image analysis: Chips perfused with blood samples were immediately imaged via fluorescence microscopy (Olympus 1X83, 10× objective UPLFLN10X2, Circa-Flash4.0 CMOS Camera). […] Image processing and quantification was performed with an automatic macro compiled in […] and numerical values corresponding to platelet coverage or fibrin florescence were collected and statistically analyzed in Graphpad Prism V7.
Platelet Coverage: A percentage of signal coverage (or Platelet coverage) was computed from the binary image as the ratio of bright pixels to the total number of pixels in the image, Image processing and quantification was performed with an automatic macro compiled in ImageJ in order to ensure unbiased signal measurements. […]

[2] = system: fibrin deposition from human whole blood on HUVEC endothelium; experiment: Vessel-On-Chip blood perfusion, fibrin deposition by fluorescent fibrinogen imaging; type: cell-based; details: for fibrin deposition / fibrin signal intensity on the endothelium: vs blood alone, TNF-α 50 ng/ml 6 h, sCollagen 10 μg/ml, hu5C8 240 μg/ml + sCD40L 10 ng/ml
Procedure: as §2, §4
Visualizing Fibrin Deposition: When analyzing the formation of fibrin, 10 μg/ml of fluorescently labeled fibrinogen (Alexa 488, Invitrogen) was also added to the blood. While fluorescent fibrinogen was barely detected as a diffused fluorescence, fibrin deposition on inflamed cells and sparse clots was easily distinguished since fibrin formed filamentous structures produce a signal intensity that is clearly observed above a background threshold.
as §5, with “hour.” for “hour. After blocking, samples were washed in PBS twice and then incubated with anti VE-Cadherin monoclonal antibody (Abeam) diluted 1:100 in blocking solution at 4° C. overnight.”
Platelet Coverage: A percentage of signal coverage (or Platelet coverage) was computed from the binary image as the ratio of bright pixels to the total number of pixels in the image, Image processing and quantification was performed with an automatic macro compiled in ImageJ in order to ensure unbiased signal measurements. Numerical values corresponding to platelet coverage or fibrin fluorescence (signal intensity) were collected and statistically analyzed in Graphpad Prism V7.

[3] = system: thrombin anti-thrombin complex (TAT); experiment: Thrombin-Anti Thrombin (TAT) measurement via ELISA in chip effluent; type: cell-based, human; details: for levels of TAT in outflow: vs blood alone, TNF-α 50 ng/ml 6 h endothelial pre-treatment, sCollagen in blood, hu5C8 240 μg/ml + sCD40L 10 ng/ml
Procedure: Thrombin-Anti Thrombin (TAT) measurement via ELISA: Thrombin Anti-Thrombin (TAT) levels were analyzed in plasma from blood flowing out of the chip device by removing a sample from the outflow port. Thus TAT levels were evaluated in sample effluents collected from the outflow port of the chip using the Human TAT ELISA Kit (Siemens Healthineers) according to the user manual.
Blood sampled from the Vessel-On-Chip outflow port was analyzed for thrombin anti-thrombin complex (TAT), a factor released upon activation of the coagulation cascade and one of the biomarkers associated with thrombotic events occurring in patients affected with deep vein thrombosis (DVT) or SLE^45,46. TAT is an accepted clinical biomarker for procoagulation^48,49. An enzyme-linked immunosorbent assay (ELISA) was used to quantify the thrombin anti-thrombin complex (TAT).

ICAM1 = ICAM1 immunostaining of endothelium on chip; type: cell-based, human; details: TNF-α stimulated endothelium
Procedure: ICAM1 is shown with examples identified by white arrows. One example of a DAPI stained nuclei is shown inside of a white circle.
TNF-alpha Stimulation: In some experiment endothelial cells were stimulate with 50 ng/ml of TNF (Sigma) for 6 hours in order to induce vascular inflammation before blood perfusion.

lupus nephritis patients = details: lupus nephritis clinical study; cited from earlier work
[4] = system: human whole blood perfused over HUVEC endothelium; experiment: Thrombosis on-chip, combined endpoints (platelet coverage, fibrin deposition, TAT); type: cell-based; details: hu5C8 alone 240 μg/mL; sCD40L alone 10 ng/ml; 4 donors; 60 μl/minute
Procedure: as §3, §1
Re-calcified blood samples were then perfused through the biomimetic vessel with untreated endothelium at a flow rate of 60 ul/minute for about 10 minutes while sodium citrate was re-introduced through the anticoagulant port. […]

[5] = Eptifibatide 2 ug/ml, endothelium inflamed with TNF-α, n=4

## Nc1ncnc2c1ncn2[C@@H]1O[C@H](COP(=O)(O)OP(=O)(O)O)[C@@H](O)[C@H]1O [ADP]
p-selectin on platelets
  platelets positive for p-selectin: over 90%

## N=C(N)NCCCC[C@@H]1NC(=O)CCSSC[C@@H](C(N)=O)NC(=O)[C@@H]2CCCN2C(=O)[C@H](Cc2c[nH]c3ccccc23)NC(=O)[C@H](CC(=O)O)NC(=O)CNC1=O [Eptifibatide] ([Mpa][hArg]GDWPC-NH2; disulfide 1-7)
[1]; [5]
  inhibition of platelet aggregation: significantly inhibited
[1]; Eptifibatide 2 ug/ml, following treatment with sCollagen, n=4
  inhibitory effect on platelet aggregation and fibrin clot formation: comparatively modest
[1]; Eptifibatide 2 ug/ml, n=4
  platelet adhesion (image analysis of multiple experiments): completely inhibited
[2]; [5]
  inhibition of fibrin clot formation: significantly inhibited
[2]; Eptifibatide 2 ug/ml, samples treated with TNF-α
  fibrin signal remaining under Eptifibatide: significant amount of fibrin signal was still detectable
[3]; Eptifibatide 2 ug/ml, TNF-α pre-treated endothelium
  effect on TAT increment associated with TNF-α-induced inflammation: did not inhibit
[3]; Eptifibatide 2 ug/ml, sCollagen-treated blood
  effect on TAT increment due to sCollagen treatment: entirely suppressed

## TNF-α
[1]
  platelet coverage / platelet aggregate formation on the endothelium: increased
[2]
  fibrin deposition / fibrin signal intensity on the endothelium: increased
[3]
  levels of TAT in outflow: significantly increased
ICAM1
  expression of ICAM1 in the endothelium compared to the control: increased expression

## hu5C8: humanized monoclonal IgG1 antibody against CD40L (anti-CD154)
Lupus nephritis patients
  incidence of thromboembolitic events: 2/18
[4]
  treatment-related effects compared to untreated blood: no significant treatment-related effects

## sCollagen: soluble collagen (Soluble Calf Skin, Type I), a standard platelet activator
[1]
  platelet coverage / platelet aggregate formation on the endothelium: increased
[2]
  fibrin deposition / fibrin signal intensity on the endothelium: increased
[3]
  levels of TAT in outflow: minimally increased
